Laboratory results taken from patent US10322999B2, “Oxindoles derivatives, preparation method thereof and pharmaceutical compositions for the prevention or treatment of cancer containing the same as an active ingredient” (RESEARCH & BUSINESS FOUNDATION SUNGKYUNKWAN UNIVERSITY, priority 2017, dated 2019).

Key:
[1] = system: human breast cancer cell line (MCF-7); test: MTT assay, growth inhibition of MCF-7 cells; type: cell-based; settings: MCF7, MTT, 48 hours incubation, MCF-7, read-out: MCF-7 (IC50)
Procedure: (§1) To evaluate the anticancer activity of the oxindole derivatives produced and analyzed in examples 1 to 8, MTT assay was performed to confirm the growth inhibitory effect on cancer cells. More specifically, human prostate adenocarcinoma cell line (LNCaP), human breast cancer cell line (MCF-7), human ovarian cancer cell line (SKOV3), human lung cancer cell line […] and human renal adenocarcinoma cell line (786-O) were cultured in DMEM medium supplemented with 1% penicillin/streptomycin and 10% fetal bovine serum (All from Life Technologies, Grand Island, N.Y.). Cells were seeded in 96-well plates (3×10^3 cells/well) containing 100 μL of growth medium for 24 hours. After the medium was removed, 100 μL of each of the different analogues (dissolved in DMSO to 0.025% or less) was added to each well and cultured at 37° C. for 48 hours. After 48 hours of incubation, 100 μL of MTT reagent was added to each well. After incubation at 37° C. for 4 hours, the supernatant was aspirated, and the formazan crystals were dissolved in 100 μL of DMSO at 37° C. for 10 minutes with gentle stirring. Absorbance per well was measured at 540 nm using a VERSA max microplate reader (Molecular Devices Corp.). IC50 values were defined as compound concentrations that inhibited cell proliferation by 50% compared to cells treated with the highest amount of DMSO (0.025%) and were considered to be 100% viability.

[2] = system: all carcinomas; test: MTT assay, summary over all five cancer cell lines; type: cell-based, human; settings: summary of Table 3, all five cell lines
Procedure: as §1

[3] = system: human prostate adenocarcinoma cell line (LNCaP); test: MTT assay, growth inhibition of LNCaP cells; type: cell-based; settings: Homo sapiens; MTT, 48 hours incubation, LNCaP; read-out: LNCaP (IC50)
Procedure: as §1

[4] = system: human lung cancer cell line (A459); test: MTT assay, growth inhibition of A549 cells; type: cell-based; settings: Homo sapiens; MTT, 48 hours incubation, A549; read-out: A549 (IC50)
Procedure: as §1

[5] = system: human ovarian cancer cell line (SKOV3); test: MTT assay, growth inhibition of SKOV3 cells; type: cell-based; settings: SK-OV-3, MTT, 48 hours incubation, SKOV3, read-out: SKOV3 (IC50)
Procedure: as §1

[6] = system: human renal adenocarcinoma cell line (786-O); test: MTT assay, growth inhibition of 786-O cells; type: cell-based; settings: Homo sapiens, 786-0; MTT, 48 hours incubation, 786-O; read-out: 786-O (IC50)
Procedure: as §1

Row | SMILES | IC50 [1] [µM] | IC50 [3] [µM] | IC50 [4] [µM] | IC50 [5] [µM] | IC50 [6] [µM] | inhibitory activity against all carcinomas (in words) [2]
1 | CCCCOC(=O)CC1C(=O)N(Nc2ccccc2CC)c2c(CC)cccc21 (stereo not drawn) [6b, Butyl 2-(7-ethyl-1-((2-ethylphenyl)amino)-2-oxoindolin-3-yl)acetate] | 14.7 | 13.9 | 17.6 | 15.1 | 12.2 | excellent
2 | CCCCOC(=O)c1[nH]c2cc(CC)ccc2c1C(=O)OCCCC [7a, Dibutyl 6-ethyl-1H-indole-2,3-dicarboxylate] | 20.6 | 14.5 | 24.4 | 22.1 | 13.2 | excellent

The next lines start with results.

Row | IC50 [1] [µM] | IC50 [3] [µM] | IC50 [4] [µM] | IC50 [5] [µM] | IC50 [6] [µM] | SMILES | inhibitory activity against all carcinomas (in words) [2]
3 | 14.2 | 12.5 | 22.5 | 14.5 | 12.6 | CCc1ccccc1NN1C(=O)C(CC(=O)OCC(C)C)c2cccc(CC)c21 (stereo not drawn) [6d, Isobutyl 2-(7-ethyl-1-((2-ethylphenyl)amino)-2-oxoindolin-3-yl)acetate] | excellent
4 | 20.5 | 15.5 | 33.3 | 21.3 | 14.7 | CNC(=O)CC1C(=O)N(Nc2cccc(Cl)c2C)c2c1ccc(Cl)c2C (stereo not drawn) [3e, 2-(6-Chloro-1-((3-chloro-2-methylphenyl)amino)-7-methyl-2-oxoindolin-3-yl)-N-methylacetamide] | excellent
5 | 14.8 | 12.8 | 24 | 16.9 | 13.3 | CNC(=O)CC1C(=O)N(Nc2cccc(Br)c2C)c2c1ccc(Br)c2C (stereo not drawn) [3f, 2-(6-bromo-1-((3-bromo-2-methylphenyl)amino)-7-methyl-2-oxoindolin-3-yl)-N-methylacetamide] | excellent
